The experiment has as its target bsLDH (Geobacillus stearothermophilus, UniProt P00344). The class given is binding.

Chain of bsLDH (P00344 whole entry): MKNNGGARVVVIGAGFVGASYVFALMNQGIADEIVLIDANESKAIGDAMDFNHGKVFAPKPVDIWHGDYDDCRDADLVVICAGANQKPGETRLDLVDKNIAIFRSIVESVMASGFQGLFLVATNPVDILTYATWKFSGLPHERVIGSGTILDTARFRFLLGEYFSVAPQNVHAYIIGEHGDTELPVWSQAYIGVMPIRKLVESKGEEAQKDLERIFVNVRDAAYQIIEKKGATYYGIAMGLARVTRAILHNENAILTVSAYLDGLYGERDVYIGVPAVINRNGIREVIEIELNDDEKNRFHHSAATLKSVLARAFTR

Take `NC(=O)C1=CN([C@@H]2O[C@H](COP(=O)(O)OP(=O)(O)OC[C@H]3O[C@@H](n4cnc5c(N)ncnc54)[C@H](O)[C@@H]3O)[C@@H](O)[C@H]2O)C=CC1` [NADH]: the Kd was 1300 ± 700 nM.

(Values after PMC5235360 (Biochemistry, 2016).)
